From ChEMBL document CHEMBL1201862, “PubChem BioAssay data set” (2004)
Several values for one entry are separate records, joined by “and”; a condition that tells them apart may be missing. Equal values may be shown once. Activity calls are given as the source filed them.

Assays:
[1] = molecular target: Peroxisome proliferator-activated receptor gamma/Nuclear receptor coactivator 1 (Homo sapiens, UniProt P37231); assay: (§1) TR-FRET dose response biochemical High Throughput Screening assay for agonists of the steroid receptor coactivator 1 (SRC-1) recruitment by the peroxisome proliferator-activated receptor gamma (PPAR gamma): non-selective agonists. [Related pubchem assays (depositor defined):AID1300, AID1808, AID504735, AID631]; type: protein assay
[2] = molecular target: Peroxisome proliferator-activated receptor gamma/Nuclear receptor coactivator 3 (Homo sapiens, UniProt P37231); assay: as §1, with “3 (SRC-3)” for “1 (SRC-1)”, “assays: 1301 (Confirmation screen.), 1048 (Primary screen.)]” for “assays (depositor defined):AID1300, AID1808, AID504735, AID631]”; type: functional
[3] = molecular target: Peroxisome proliferator-activated receptor gamma/Nuclear receptor coactivator 2 (Homo sapiens, UniProt P37231); assay: TR-FRET dose response biochemical High Throughput Screening assay for agonists of the steroid receptor coactivator 2 (SRC-2) recruitment by the peroxisome proliferator-activated receptor gamma (PPAR gamma): non-selective agonists. [Related pubchem assays: 1297, 1032 ]; type: functional
[4] = molecular target: Beta-2 adrenergic receptor (Homo sapiens, UniProt P07550); assay: beta2AR agonists driving receptor internalization, dose response, cell-based, FAP fluorogen, flow cytometry, cherry pick 1 (AID 588763); type: functional
[5] = test system: CHO-K1; assay: (§2) Counterscreen for antagonists of the orexin 1 receptor (OX1R; HCRTR1): Homogeneous time resolved fluorescence (HTRF)-based cell-based dose response assay to identify antagonists of the parental CHO-K1 cell line. [Related pubchem assays (depositor defined):AID434989, AID435008, AID463079, AID485270, AID492963, AID492964, AID492965, AID493232, AID504699, AID504701]; type: functional; conditions: Cricetulus griseus
[6] = as §2, with “Fluorescence-based” for “Homogeneous time resolved fluorescence (HTRF)-based”, “cell-based high throughput” for “cell-based”, “CHO” for “CHO-K1”; type: functional
[7] = molecular target: T1, Orexin/Hypocretin receptor type 1 (Homo sapiens, UniProt O43613); assay: Homogeneous Time Resolved Fluorescence (HTRF)-based cell-based high throughput dose response assay for antagonists of the orexin 1 receptor (OX1R; HCRTR1). [Related pubchem assays (depositor defined):AID434989, AID435008, AID463079, AID485270, AID492963, AID492964, AID492965, AID493232, AID504717, AID504718]; type: functional
T1 sequence (O43613 whole entry): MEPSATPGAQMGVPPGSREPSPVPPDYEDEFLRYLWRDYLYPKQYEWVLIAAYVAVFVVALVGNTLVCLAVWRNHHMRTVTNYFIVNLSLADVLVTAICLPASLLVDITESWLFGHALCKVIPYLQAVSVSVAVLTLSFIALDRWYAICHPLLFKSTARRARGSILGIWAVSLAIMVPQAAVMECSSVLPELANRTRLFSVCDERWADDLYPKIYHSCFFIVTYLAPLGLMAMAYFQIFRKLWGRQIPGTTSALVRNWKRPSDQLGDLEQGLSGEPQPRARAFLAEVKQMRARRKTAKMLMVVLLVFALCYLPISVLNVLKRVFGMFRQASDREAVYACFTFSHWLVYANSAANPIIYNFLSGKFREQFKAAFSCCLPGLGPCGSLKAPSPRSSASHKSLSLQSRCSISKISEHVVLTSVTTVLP

[8] = molecular target: T1, Orexin/Hypocretin receptor type 1; assay: Fluorescence-based cell-based high throughput dose response assay for antagonists of the orexin 1 receptor (OX1R; HCRTR1). [Related pubchem assays (depositor defined):AID434989, AID435008, AID463079, AID485270, AID492963, AID492964, AID492965, AID493232, AID504717, AID504718]; type: functional
[9] = molecular target: T2, Orexin receptor type 2 (Homo sapiens, UniProt O43614); assay: Counterscreen assay for antagonists of the orexin 1 receptor (OX1R; HCRTR1): Fluorescence-based cell-based dose response assay for antagonists of the orexin 2 receptor (OX2R; HCRTR2), run by assay provider.; type: functional
T2 sequence (O43614 whole entry): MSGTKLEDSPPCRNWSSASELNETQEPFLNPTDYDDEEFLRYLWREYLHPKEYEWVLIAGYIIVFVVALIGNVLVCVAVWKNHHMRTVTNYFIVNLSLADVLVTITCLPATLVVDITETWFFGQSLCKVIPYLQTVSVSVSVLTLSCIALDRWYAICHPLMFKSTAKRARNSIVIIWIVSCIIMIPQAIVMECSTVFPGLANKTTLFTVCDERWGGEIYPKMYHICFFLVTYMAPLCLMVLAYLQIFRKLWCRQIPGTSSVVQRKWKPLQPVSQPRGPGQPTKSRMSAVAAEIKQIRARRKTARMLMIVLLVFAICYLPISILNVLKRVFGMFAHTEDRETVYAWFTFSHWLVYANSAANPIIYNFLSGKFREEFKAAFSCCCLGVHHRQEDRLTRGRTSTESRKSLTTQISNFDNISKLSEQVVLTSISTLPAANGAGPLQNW

[10] = molecular target: T2, Orexin receptor type 2; assay: Counterscreen assay for antagonists of the orexin 1 receptor (OX1R; HCRTR1): Homogeneous Time Resolved Fluorescence (HTRF)-based cell-based dose response assay for antagonists of the orexin 2 receptor (OX2R; HCRTR2), run by assay provider.; type: functional
[11] = molecular target: Serine/threonine-protein kinase pim-1 (Homo sapiens, UniProt P11309); type: functional
[12] = molecular target: Serine/threonine-protein kinase pim-3 (Homo sapiens, UniProt Q86V86); type: functional;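 note: value obtained as one member of a broad kinase panel profiling effort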
[13] = molecular target: Mitogen-activated protein kinase kinase kinase kinase 5 (Homo sapiens, UniProt Q9Y4K4); type: functional;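 note: measured as one member of a kinome-spanning kinase panel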
[14] = molecular target: Glycogen synthase kinase-3 beta (Homo sapiens, UniProt P49841); type: functional;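 note: value comes from a broad kinome profiling panel, with GSK3B as the panel member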
[15] = molecular target: Mitogen-activated protein kinase kinase kinase kinase 4 (Homo sapiens, UniProt O95819); type: functional
[16] = molecular target: Serine/threonine-protein kinase BRSK1 (Homo sapiens, UniProt Q8TDC3); type: functional;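 note: measured within a kinome-wide kinase panel, with the target listed as KIAA1811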
[17] = HEp-2 cell cytotoxicity, dose response, cytotoxicity control for RSV inhibitor project, HTS (AID 2410); type: functional; conditions: human respiratory syncytial virus
[18] = molecular target: Troponin, cardiac muscle (Homo sapiens, UniProt P19429+P45379+P63316); assay: Fluorescence-based biochemical high throughput dose response assay for activators of the calcium sensitivity of cardiac Regulated Thin Filaments (RTF). [Related pubchem assays (depositor defined):AID493008, AID493018, AID504382, AID504383]; type: protein-complex assay
[19] = molecular target: T3, Endoribonuclease toxin MazF (Escherichia coli K-12, UniProt P0AE70); assay: MazF toxin RNase activators, dose response, biochemical, fluorescence, single-stranded RNA substrate, uHTS hits (AID 588481); type: functional
T3 sequence (P0AE70 whole entry): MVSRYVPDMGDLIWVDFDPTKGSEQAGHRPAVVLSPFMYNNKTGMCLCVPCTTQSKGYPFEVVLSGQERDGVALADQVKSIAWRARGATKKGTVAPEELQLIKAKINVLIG

[20] = molecular target: T3, Endoribonuclease toxin MazF; assay: fluorescent RNA oligo signal without MazF, dose response, counter-screen for MazEF activator project, biochemical, fluorescence, single-stranded RNase substrate (AID 588502); type: functional

Sequence of Beta-2 adrenergic receptor (P07550 whole entry): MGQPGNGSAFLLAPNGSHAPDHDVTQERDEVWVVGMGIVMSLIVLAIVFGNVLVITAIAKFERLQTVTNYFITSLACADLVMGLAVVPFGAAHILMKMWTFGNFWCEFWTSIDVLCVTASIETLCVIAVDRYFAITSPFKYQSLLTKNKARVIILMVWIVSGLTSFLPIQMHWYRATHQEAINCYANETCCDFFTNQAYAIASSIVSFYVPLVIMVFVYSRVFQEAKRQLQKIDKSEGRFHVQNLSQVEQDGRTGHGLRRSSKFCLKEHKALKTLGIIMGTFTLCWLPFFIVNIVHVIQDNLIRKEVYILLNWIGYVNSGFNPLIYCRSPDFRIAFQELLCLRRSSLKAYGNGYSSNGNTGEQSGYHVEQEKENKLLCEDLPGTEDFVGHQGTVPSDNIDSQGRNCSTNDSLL
Sequence of Peroxisome proliferator-activated receptor gamma/Nuclear receptor coactivator 2 (P37231 whole entry): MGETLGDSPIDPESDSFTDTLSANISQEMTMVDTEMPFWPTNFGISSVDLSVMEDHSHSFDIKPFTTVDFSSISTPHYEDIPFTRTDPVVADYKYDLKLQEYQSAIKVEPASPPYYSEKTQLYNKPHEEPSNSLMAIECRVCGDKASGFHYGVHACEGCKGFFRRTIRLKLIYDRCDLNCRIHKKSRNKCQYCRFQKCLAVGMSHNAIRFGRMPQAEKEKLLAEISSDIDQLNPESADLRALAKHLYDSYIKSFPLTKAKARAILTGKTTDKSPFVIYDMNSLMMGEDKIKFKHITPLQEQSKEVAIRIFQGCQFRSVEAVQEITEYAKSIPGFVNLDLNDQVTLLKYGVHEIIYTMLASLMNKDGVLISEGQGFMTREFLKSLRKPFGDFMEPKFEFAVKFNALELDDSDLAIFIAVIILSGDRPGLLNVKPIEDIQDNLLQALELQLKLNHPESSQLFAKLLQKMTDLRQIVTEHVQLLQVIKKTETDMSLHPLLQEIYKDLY
Sequence of Peroxisome proliferator-activated receptor gamma/Nuclear receptor coactivator 2 (Q15596 whole entry, further chain): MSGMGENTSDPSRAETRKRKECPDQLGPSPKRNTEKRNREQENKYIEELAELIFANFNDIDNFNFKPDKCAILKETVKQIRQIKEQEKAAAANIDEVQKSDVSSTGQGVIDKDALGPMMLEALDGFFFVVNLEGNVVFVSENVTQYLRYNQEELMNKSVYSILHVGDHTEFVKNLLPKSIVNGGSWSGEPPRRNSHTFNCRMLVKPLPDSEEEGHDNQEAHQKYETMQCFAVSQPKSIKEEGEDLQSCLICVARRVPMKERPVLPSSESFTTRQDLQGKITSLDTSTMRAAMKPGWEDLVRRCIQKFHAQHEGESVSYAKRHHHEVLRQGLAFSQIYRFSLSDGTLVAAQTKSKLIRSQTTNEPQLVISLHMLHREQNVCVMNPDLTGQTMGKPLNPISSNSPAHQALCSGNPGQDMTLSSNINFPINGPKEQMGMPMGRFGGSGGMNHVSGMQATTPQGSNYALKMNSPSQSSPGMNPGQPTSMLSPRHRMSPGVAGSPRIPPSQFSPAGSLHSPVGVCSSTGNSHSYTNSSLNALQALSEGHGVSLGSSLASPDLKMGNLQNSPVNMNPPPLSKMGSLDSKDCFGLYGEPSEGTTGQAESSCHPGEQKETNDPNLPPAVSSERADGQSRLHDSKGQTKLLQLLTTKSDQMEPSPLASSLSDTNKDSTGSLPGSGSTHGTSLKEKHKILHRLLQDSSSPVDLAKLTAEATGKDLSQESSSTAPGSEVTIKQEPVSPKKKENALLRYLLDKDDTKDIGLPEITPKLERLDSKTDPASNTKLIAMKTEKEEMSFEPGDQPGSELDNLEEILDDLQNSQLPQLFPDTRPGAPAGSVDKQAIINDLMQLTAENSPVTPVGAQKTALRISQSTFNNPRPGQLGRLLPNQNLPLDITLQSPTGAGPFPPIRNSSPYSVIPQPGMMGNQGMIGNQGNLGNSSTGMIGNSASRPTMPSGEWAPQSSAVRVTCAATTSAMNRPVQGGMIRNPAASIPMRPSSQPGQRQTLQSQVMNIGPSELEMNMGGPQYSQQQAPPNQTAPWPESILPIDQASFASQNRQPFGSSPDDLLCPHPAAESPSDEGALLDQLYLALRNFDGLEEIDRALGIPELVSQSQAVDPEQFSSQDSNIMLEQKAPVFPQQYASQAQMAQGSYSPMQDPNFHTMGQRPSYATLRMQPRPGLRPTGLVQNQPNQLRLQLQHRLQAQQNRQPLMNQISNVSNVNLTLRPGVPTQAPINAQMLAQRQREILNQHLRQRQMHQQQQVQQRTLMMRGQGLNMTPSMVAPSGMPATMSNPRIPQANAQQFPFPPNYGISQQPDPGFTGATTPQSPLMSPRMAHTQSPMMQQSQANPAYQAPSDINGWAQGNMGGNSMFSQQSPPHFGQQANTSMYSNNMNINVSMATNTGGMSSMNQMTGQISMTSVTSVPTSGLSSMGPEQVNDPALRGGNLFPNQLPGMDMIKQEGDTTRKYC
Sequence of Peroxisome proliferator-activated receptor gamma/Nuclear receptor coactivator 1 (P37231 whole entry): as the sequence (P37231 whole entry) above
Sequence of Peroxisome proliferator-activated receptor gamma/Nuclear receptor coactivator 1 (Q15788 whole entry, further chain): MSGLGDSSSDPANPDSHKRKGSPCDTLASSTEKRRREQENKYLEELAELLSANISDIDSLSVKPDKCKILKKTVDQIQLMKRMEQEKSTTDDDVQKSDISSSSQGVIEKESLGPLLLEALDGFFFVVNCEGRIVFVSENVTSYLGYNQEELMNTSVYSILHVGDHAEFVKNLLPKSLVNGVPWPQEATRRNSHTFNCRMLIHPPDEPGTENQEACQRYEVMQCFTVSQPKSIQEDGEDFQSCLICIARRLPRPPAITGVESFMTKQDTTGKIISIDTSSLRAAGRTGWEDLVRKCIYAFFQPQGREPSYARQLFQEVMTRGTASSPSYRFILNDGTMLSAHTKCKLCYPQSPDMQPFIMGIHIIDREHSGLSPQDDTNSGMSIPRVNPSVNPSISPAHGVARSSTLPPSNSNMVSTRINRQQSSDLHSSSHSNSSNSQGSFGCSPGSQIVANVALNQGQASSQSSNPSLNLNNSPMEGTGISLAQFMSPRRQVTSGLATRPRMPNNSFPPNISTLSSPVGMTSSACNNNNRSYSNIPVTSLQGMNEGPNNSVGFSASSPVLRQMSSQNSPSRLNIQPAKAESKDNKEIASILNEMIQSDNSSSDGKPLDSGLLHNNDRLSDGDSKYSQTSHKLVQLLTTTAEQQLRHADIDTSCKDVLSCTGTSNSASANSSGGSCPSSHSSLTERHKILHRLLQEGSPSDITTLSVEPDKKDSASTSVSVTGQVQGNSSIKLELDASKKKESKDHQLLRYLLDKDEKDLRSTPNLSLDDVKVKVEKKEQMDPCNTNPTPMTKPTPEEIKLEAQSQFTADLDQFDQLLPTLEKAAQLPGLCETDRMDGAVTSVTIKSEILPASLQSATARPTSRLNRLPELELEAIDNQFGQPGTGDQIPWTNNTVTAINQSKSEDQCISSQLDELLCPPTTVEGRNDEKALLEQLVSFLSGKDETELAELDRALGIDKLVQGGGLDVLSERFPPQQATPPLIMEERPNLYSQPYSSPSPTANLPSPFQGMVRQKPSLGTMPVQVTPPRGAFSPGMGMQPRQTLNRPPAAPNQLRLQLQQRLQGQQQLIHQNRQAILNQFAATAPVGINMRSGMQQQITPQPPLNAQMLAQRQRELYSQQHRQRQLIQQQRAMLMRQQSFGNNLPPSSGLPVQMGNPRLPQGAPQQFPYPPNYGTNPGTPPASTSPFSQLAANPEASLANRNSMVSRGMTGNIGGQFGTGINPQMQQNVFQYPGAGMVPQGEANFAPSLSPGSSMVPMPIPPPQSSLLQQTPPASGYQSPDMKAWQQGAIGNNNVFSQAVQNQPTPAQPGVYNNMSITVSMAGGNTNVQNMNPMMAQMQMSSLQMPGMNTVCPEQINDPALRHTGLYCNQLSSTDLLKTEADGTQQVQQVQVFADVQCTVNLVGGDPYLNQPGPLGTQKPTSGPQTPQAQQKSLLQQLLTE
Sequence of Glycogen synthase kinase-3 beta (P49841 whole entry): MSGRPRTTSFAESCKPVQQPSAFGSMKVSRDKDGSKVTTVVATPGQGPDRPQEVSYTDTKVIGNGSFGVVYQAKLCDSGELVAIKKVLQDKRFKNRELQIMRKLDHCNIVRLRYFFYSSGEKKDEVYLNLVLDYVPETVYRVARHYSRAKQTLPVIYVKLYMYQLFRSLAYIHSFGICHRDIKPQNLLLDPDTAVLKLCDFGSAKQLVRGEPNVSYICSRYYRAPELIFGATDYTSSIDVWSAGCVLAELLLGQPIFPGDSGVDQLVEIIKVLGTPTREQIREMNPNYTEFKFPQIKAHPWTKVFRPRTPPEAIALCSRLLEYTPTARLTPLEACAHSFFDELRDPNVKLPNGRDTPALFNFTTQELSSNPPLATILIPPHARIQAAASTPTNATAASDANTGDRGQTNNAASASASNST
Sequence of Serine/threonine-protein kinase pim-1 (P11309 whole entry): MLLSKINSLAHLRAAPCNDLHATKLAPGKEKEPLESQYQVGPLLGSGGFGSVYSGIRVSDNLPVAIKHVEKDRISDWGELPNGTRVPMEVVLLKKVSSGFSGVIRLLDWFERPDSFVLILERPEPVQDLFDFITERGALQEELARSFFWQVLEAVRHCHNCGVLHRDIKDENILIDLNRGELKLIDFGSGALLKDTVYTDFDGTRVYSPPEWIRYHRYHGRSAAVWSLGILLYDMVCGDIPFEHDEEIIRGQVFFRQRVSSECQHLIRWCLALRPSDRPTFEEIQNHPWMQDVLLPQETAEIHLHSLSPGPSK

In the case of `CCn1c(=S)[nH]c2c(c1=O)C(C)(C)Cc1ccccc1-2`, the EC50 [1] is reported as > 79.4 µM (inactive), the EC50 [2] is reported as > 79.4 µM (not active) and the EC50 [3] is reported as > 79.4 µM (not active).

In the case of `CCOc1ccccc1C(=O)NCC(=O)OCc1csc(CC(=O)Nc2ccc(C)cc2)n1`, the EC50 [4] is reported as 228 nM (active).

In the case of `Cc1cccc(/C=N/NC(=O)c2cc3c(s2)-c2ccccc2CC3)c1`, the IC50 [5] is reported as > 66.2 µM (inactive), the IC50 [6] is reported as > 49.8 µM (inactive) and the IC50 [7] is reported as 2.13 µM (active). For the same compound, the IC50 [8] was 2.81 µM (active), the IC50 [9] was > 88.8 µM (inactive) and the IC50 [10] was > 50 µM (inactive).

In the case of `Cc1cccc(Nc2nnc(-c3ccc(C(=O)N4C[C@H]5C[C@H](C4)c4cccc(=O)n4C5)cc3)c3ccccc23)c1`, the EC50 [4] is reported as 2.12 µM (active) and 1.66 µM (active).

For `Cc1nc(-c2ccccc2)sc1-c1nc(-c2ccccc2)ncc1S(=O)(=O)c1ccccc1`, the EC50 [1] was > 26.5 µM (inactive), the EC50 [2] was 61.8 µM (not active) and the EC50 [3] was 38.2 µM (not active).

With `O=c1cc(C(F)(F)F)c2c(-c3cccc(C(F)(F)F)c3)n[nH]c2[nH]1` the Ki [11] was 5.01 µM (active), the Ki [12] was 2 µM (active) and the Ki [13] was 5.01 µM (active). For the same compound, the Ki [14] was 5.01 µM (active), the Ki [15] was 5.01 µM (active) and the Ki [16] was 7.94 µM (active).

In the case of `O=[N+]([O-])c1ccc(N2CCCC2)c2ncccc12`, the CC50 [17] is reported as > 50 µM (active), the EC50 [18] is reported as 12.1 µM (inactive) and the EC50 [19] is reported as > 99 µM (inactive). The EC50 [20] was > 99 µM (inactive).
